Assay: Study in five subjects with urinary bladder dysfunction symptoms taking Jasmone once a day for 30 days
Type: in vivo, human
Text: Five subjects, 4 male and 1 female agreed to participate in the study. Subjects ranged in age from 55-73 with average age being 67. All participants experienced noticeable urinary bladder dysfunction symptoms including frequency, urgency, and reduced urine flow. Subjects took from 50 to 100 micrograms of Jasmone once a day for 30 days. At two weeks approximately ½ of the subjects experienced improved bladder function. […] For example, several subjects noted that before treatment they averaged 2 night time awakenings to urinate which was reduced to 1 or 0 subsequent to taking Jasmone. Other subjects had even greater improvement from an average of 3-4 night awakenings to urinate to 1. […] In addition several male subjects reported increased flow of discharge up to 100%.

CC/C=C\CC1=C(C)CCC1=O [Jasmone]
reduction of daytime bathroom visits (50 to 100 micrograms once a day for 30 days): approximately 50% | fraction of subjects who experienced improved bladder function (at two weeks, 50 to 100 micrograms of Jasmone once a day, five subjects aged 55-73): approximately ½ | subject-reported improvements in frequency, urgency, and urine flow (by day thirty, 50 to 100 micrograms once a day): all subjects reported improvements in frequency, urgency, and urine flow | night awakenings to urinate after treatment (other subjects, average of 3-4 before treatment): 1 | increased flow of discharge (several male subjects): up to 100% | "holding time" (urgency) after treatment (several patients, from approximately 10 minutes before treatment, i.e. during extended air travel): ~60 min

Reference: patent publication US9492403B2, “Method of treating overactive bladder, not due to cancer, by administering at least one jasmonate” (Broady Health Sciences, LLC, priority 2010, dated 2016)
